Each block holds one compound with its values, some of them ahead of it.
Columns and labels:
[1] = tested on: α-Mannosidase 92S, Bacteroides thetaiotaomicron; assay: Cleavage of 3′-glycoside thymidine by glycosyl hydrolases (HPLC); format: biochemical; conditions: 100 mM HEPES pH 7.0, 2 mM CaCl2, 37° C.
Protocol: (§1) The cleavage of the 3′-glycoside moiety from 3′-(β)-glucopyranoside thymidine, 3′-(β)-xylopyranoside thymidine and 3′-(α)-mannopyranoside thymidine using glycosyl hydrolases was tested by incubating the nucleoside substrate (200 μM) with the enzyme (2 μM) in buffer. At set timepoints, 50 μL aliquots of the reaction solution were taken and quenched with 50 μL of either 0.1 M EDTA or […]. The aliquots were then analysed by reverse phase HPLC (YMC-Triart C18 Column, 12 nm, 5 μm, 250×4.6 mm column) using a gradient from 0% to 8% acetonitrile in 0.1 M TEAB over 25 minutes, monitoring the disappearance of the 3′-glycopyranoside thymidine substrate peak and the appearance of the thymidine product peak.

[2] = tested on: α-Mannosidase 92B, Bacteroides thetaiotaomicron; assay: as above; format: biochemical; conditions: 100 mM HEPES pH 7.0, 2 mM CaCl2, 37° C.
Protocol: as §1

[3] = tested on: β-Glucosidase 1A, Thermus thermophilus; assay: as above; format: biochemical; conditions: 100 mM sodium citrate pH 6.5, 50° C.; 200 μM substrate, 2 μM enzyme
Protocol: as §1

[4] = tested on: β-Glucosidase 3B, Cellvibrio japonicus; assay: as above; format: biochemical; conditions: 37° C.
Protocol: as §1

[5] = tested on: β-Glucosidase 1A, Thermobifida fusca; assay: as above; format: biochemical; conditions: 100 mM HEPES pH 7.0, 50° C.; 200 μM substrate, 2 μM enzyme
Protocol: as §1

[6] = tested on: Xylosidase 43A, Thermobifida fusca; assay: as above; format: biochemical; conditions: 100 mM sodium citrate pH 5.5, 50° C.
Protocol: as §1

[7] = tested on: Xylosidase 3A, Sulfolobus solfataricus; assay: as above; format: biochemical; conditions: 100 mM MES pH 6.0, 50° C.
Protocol: as §1

[8] = tested on: Xylosidase 39A, Clostridium stercorarium; assay: as above; format: biochemical; conditions: 100 mM MES pH 6.0, 5 mM CaCl2, 50° C.
Protocol: as §1

Pol A (SBS polymerase) = assay: Sequencing flowcell assay, loss of % T call signal on incorporation of unlabeled 3′ blocked dTTP; format: biochemical
Protocol: (§2) A further example examined whether cleavage of 3′-ABF is feasible on DNA clusters on the surface of a sequencing flow cell. To this end, a sequencing assay monitoring the loss and recovery of % T call signal as read-out was carried out using an Illumina NextSeq 2000 instrument with a P2 flow cell. FIG. 4A illustrates the sequencing assay workflow using loss and recovery of % T call signal as readout, including: (1) The % T call signal baseline based on a standard Illumina Green ffT (e.g., ffT-3′-AZM-LN3-AF550POPOso) is first established with a series of SBS cycles using standard SBS chemistry; (2) incorporation by Pol A (SBS polymerase) of unlabeled dTTP with a different 3′-block (i.e., 3′-ABF dTTP or 3′-AOM dTTP used as control) results in the loss of this signal; (3) the % T signal is only partially recovered to around 75% relative to the initial baseline in subsequent standard cycles as around 25% DNA clusters are blocked by the alternative 3′-block which is uncleaved under standard SBS chemistry conditions; (4) injection of the cleavage mix specifically removing this block (i.e., ABFase removing the 3′-ABF or Pd catalyst removing 3′-AOM for the control experiment) followed by standard cycles resulting in the full recovery of the signal. […]

C. japonicum ABFase = assay: Sequencing flowcell assay, recovery of % T call signal after enzymatic cleavage from DNA clusters; format: biochemical; conditions: 30 minutes, 60° C., pH 5.5
Protocol: as §2

T. maritima GH51 ABFase = assay: Enzymatic cleavage of 3′-ABF deoxythymidine by GH51 ABFase (HPLC); format: biochemical, Thermotoga maritima; conditions: 80° C., sodium phosphate pH 6.5; 200 μM substrate, 2 μM enzyme
Protocol: (§3) Candidate arabinofuranosidases (ABFases) were tested for hydrolysis of 3′-ABF. 3′-ABF deoxythymidine was preincubated in […] sodium citrate pH 5.5 or sodium phosphate pH 6.5 at designated temperatures for 5 minutes. Enzyme was added to the reaction so that the final reaction contained 200 μM substrate and 2 μM enzyme. At indicated time points, 50 μL aliquots were removed and quenched with 50 μL 0.1N NaOH prior to analysis by HPLC (YMC Triart C18, 250×4.5 mm, S-5 μm, 12 nm, 0.1M TEAB/100% Acetonitrile) to determine the percentage of enzymatically unblocked nucleotide (or % deprotection).
(§4) Various arabinofuranosidases (ABFases) included CAZy Glycoside Hydrolases family 51 (GH51) from Thermotoga maritima, Cellvibrio japonicus, Clostridium thermocellum, Bacillus subtilis, and Podosporina anserina. The molar ratio of enzyme to 3′-ABF deoxythymidine was 1:100 in all reaction mixes. The reaction using T. maritima ABFase was carried out at 80° C. with a sodium phosphate buffer to ensure a pH of 6.5. The reaction using C. japonicus ABFase was carried out at 37° C. with a sodium citrate buffer to ensure a pH of 5.5. The reaction using C. thermocellum ABFase was carried out at 65° C. with a sodium phosphate buffer to ensure a pH of 6.5. The reaction using B. subtilis ABFase was carried out at 60° C. with a sodium phosphate buffer to ensure a pH of 6.5. […]

B. subtilis GH51 ABFase = assay: as above; format: biochemical, Bacillus subtilis; conditions: 60° C., sodium phosphate pH 6.5; 200 μM substrate, 2 μM enzyme
Protocol: as §3, §4

C. japonicus GH51 ABFase = assay: as above; format: biochemical, Cellvibrio japonicus; conditions: 37° C., sodium citrate pH 5.5; 200 μM substrate, 2 μM enzyme
Protocol: as §3, §4

[9] = 3′-ABF blocking group stability testing (staging in incorporation buffer, UPLC); format: physicochemical
Protocol: T Nucleoside was blocked with a 3′-O-α-L-arabinofuranoside (3′-ABF,
blocking groups. 1 mL of 3′ blocked T nucleosides at 0.1 mM were made in a solution of 50 mM glycine buffer (pH 9.9), 50 mM NaCl, and 1 mM EDTA. F
These solutions were incubated at 60° C. in a heating block for 1 month. Spontaneous cleavage of the 3′-ABF under incorporation conditions (50 mM Glycine pH 9.8 at 60° C.) was measured by staging 3′-ABF deoxythymine to evaluate the stability of 3′-ABF as a blocking group. At set time points, 40 μL aliquots were taken and analyzed by UPLC (conditions/column) to determine the percentage of blocked nucleotide remaining and the eventual formation of unblocked nucleotide.

P. anserina GH51 ABFase = assay: Enzymatic cleavage of 3′-ABF deoxythymidine by GH51 ABFase (HPLC); format: biochemical, Podosporina anserina; conditions: 60° C., sodium citrate pH 5.5; 200 μM substrate, 2 μM enzyme
Protocol: as §3, §4

[10] = target: C. thermocellum GH51 ABFase (Acetivibrio thermocellus, UniProt A3DIH0); assay: as above; format: biochemical, Clostridium thermocellum; conditions: 65° C., sodium phosphate pH 6.5; 200 μM substrate, 2 μM enzyme
Protocol: as §3, §4

[11] = tested on: mutant DNA polymerase Pol A; assay: Primer extension assay, incorporation into DNA (33P-labelled primer:template, PAGE); format: biochemical
Protocol: The incorporation of the 5′-triphosphate 3′-[(β)-D-glucopyranosyl]thymidine and 5′-triphosphate 3′-[(β)-D-xylopyranosyl]thymidine into DNA by a mutant DNA polymerase Pol A was tested using a primer extension assay. Briefly, a ^33P-labelled DNA primer:template (20 nM) was incubated with the DNA polymerase ([…]) and the nucleotide triphosphates (1 μM) in buffer (50 mM Glycine pH 9.6, 50 mM NaCl, 9 mM MgSO4, 1 mM EDTA) at 60° C. The rate was determined by calculating the percentage of incorporation compared to the initial primer template band and the incorporation results are shown in FIG. 6B.

[12] = 1 μM nucleotide, 50 mM Glycine pH 9.6, 60° C.

Chain of C. thermocellum GH51 ABFase (A3DIH0 whole entry): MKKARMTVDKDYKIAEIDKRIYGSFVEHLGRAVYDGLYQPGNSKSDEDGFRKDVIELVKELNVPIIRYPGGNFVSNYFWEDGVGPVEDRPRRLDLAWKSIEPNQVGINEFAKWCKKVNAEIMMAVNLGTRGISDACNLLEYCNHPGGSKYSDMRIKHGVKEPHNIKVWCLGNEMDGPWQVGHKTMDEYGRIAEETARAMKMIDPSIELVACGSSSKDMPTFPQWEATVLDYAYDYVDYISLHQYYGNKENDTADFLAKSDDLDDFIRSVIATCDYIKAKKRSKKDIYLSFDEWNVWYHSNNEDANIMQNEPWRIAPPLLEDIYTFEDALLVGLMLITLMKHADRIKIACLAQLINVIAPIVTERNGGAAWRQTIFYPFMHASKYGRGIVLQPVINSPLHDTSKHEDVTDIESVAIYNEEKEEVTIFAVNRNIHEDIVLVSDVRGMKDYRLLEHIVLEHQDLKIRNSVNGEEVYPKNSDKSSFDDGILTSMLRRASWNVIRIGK

- cleavage of the 3′-mannopyranoside group [1]: not observed
- cleavage of the 3′-mannopyranoside group [2]: not observed
SMILES: Cc1cn([C@H]2CC(O[C@H]3OC(CO)[C@@H](O)C(O)C3O)[C@@H](CO)O2)c(=O)[nH]c1=O (stereo partly drawn) [3′-(α)-mannopyranoside thymidine, 3′-[(α)-D-mannopyranosyl]thymidine]

- time to complete cleavage of the 3′-glucopyranoside group [3]: less than 2 minutes
- time to complete cleavage of the 3′-glucopyranoside group ([4]; pH 6.5 (100 mM sodium citrate)): approximately 2 hours
- time to complete cleavage of the 3′-glucopyranoside group ([4]; pH 7.5 (100 mM sodium phosphate)): approximately 2 hours
- time to complete cleavage of the 3′-glucopyranoside group [5]: less than 2 minutes
SMILES: Cc1cn([C@H]2CC(O[C@@H]3OC(CO)[C@@H](O)C(O)C3O)[C@@H](CO)O2)c(=O)[nH]c1=O (stereo partly drawn) [3′-(β)-glucopyranoside thymidine, 3′-[(β)-D-glucopyranosyl]thymidine]

- cleavage of the 3′-xylopyranoside group [6]: observed
- time to full conversion of the substrate [6]: > 22 h
- cleavage of the 3′-xylopyranoside group [7]: observed
- time to full conversion of the substrate [7]: > 22 h
- cleavage of the 3′-xylopyranoside group [8]: observed
- time to full conversion of the substrate [8]: > 22 h
SMILES: Cc1cn([C@H]2CC(O[C@@H]3OC[C@@H](O)C(O)C3O)[C@@H](CO)O2)c(=O)[nH]c1=O (stereo partly drawn) [3′-(β)-xylopyranoside thymidine, 3′-[(β)-D-xylopyranosyl]thymidine]

SMILES: Cc1cn([C@H]2C[C@H](O[C@@H]3O[C@@H](CO)[C@H](O)[C@H]3O)[C@@H](COP(=O)(O)OP(=O)(O)OP(=O)(O)O)O2)c(=O)[nH]c1=O [3′-ABF TTP, 3′-O-(α-L-arabinofuranosyl)-deoxythymidine-5′-triphosphate]
- % T fluorescence signal upon incorporation of the unlabeled nucleotide (Pol A (SBS polymerase); NextSeq 2000, P2 flow cell): fully drops
- % T fluorescence signal recovered when standard SBS cycles resume (Pol A (SBS polymerase); of the initial baseline, before enzymatic cleavage): around 75%
- recovery of the initial % T fluorescence signal after enzymatic cleavage (C. japonicum ABFase): full recovery

SMILES: Cc1cn([C@H]2C[C@H](O[C@@H]3O[C@@H](CO)[C@H](O)[C@H]3O)[C@@H](CO)O2)c(=O)[nH]c1=O [3′-ABF-dT, 3′-O-(α-L-arabinofuranosyl)-deoxythymidine]
- observed reaction constant kobs (T. maritima GH51 ABFase): 0.15 s⁻¹
- observed reaction constant kobs (B. subtilis GH51 ABFase): 0.035 s⁻¹
- observed reaction constant kobs (C. japonicus GH51 ABFase): 0.03 s⁻¹
- percentage of remaining blocked nucleoside ([9]; after 31 days of staging at 60° C., 0.1 mM in 50 mM glycine buffer (pH 9.9), 50 mM NaCl, 1 mM EDTA): About 100%
- stability of 3′-blocking group compared to AZM in solution ([9]; higher stability vs 3′-AZM-dT, 60° C., glycine buffer): 80-100 fold
- observed reaction constant kobs (P. anserina GH51 ABFase): 0.19 s⁻¹
- observed reaction constant kobs [10]: 0.01 s⁻¹

SMILES: Cc1cn([C@H]2CC(O[C@@H]3OC(CO)[C@@H](O)C(O)C3O)[C@@H](COP(=O)(O)OP(=O)(O)OP(=O)(O)O)O2)c(=O)[nH]c1=O (stereo partly drawn) [5′-triphosphate 3′-[(β)-D-glucopyranosyl]thymidine]
- incorporation observed [11, 12]: no detectable incorporation
- substrate for Pol A [11, 12]: is a poor substrate for Pol A

SMILES: Cc1cn([C@H]2CC(O[C@@H]3OC[C@@H](O)C(O)C3O)[C@@H](COP(=O)(O)OP(=O)(O)OP(=O)(O)O)O2)c(=O)[nH]c1=O (stereo partly drawn) [5′-triphosphate 3′-[(β)-D-xylopyranosyl]thymidine]
- substrate for Pol A [11, 12]: is a substrate for Pol A
- rate of incorporation ([11]; compared to 5′-triphosphate 3′-[(α)-L-arabinofuranosyl]thymidine and 5′-triphosphate 3′-allyloxymethyl thymidine, 60° C., pH 9.6): slower

Source: patent US20250215493A1, “NUCLEOTIDES WITH ENZYMATICALLY CLEAVABLE 3'-O-GLYCOSIDE BLOCKING GROUPS FOR SEQUENCING” (Illumina, Inc., priority 2023, published 2025)
